Reference: ChEMBL document CHEMBL2203009, “Synthesis of isoindole and benzoisoindole derivatives of teicoplanin pseudoaglycon with remarkable antibacterial and antiviral activities” (Bioorg Med Chem Lett, 2012)
Converted amounts (≈) assume the structure as drawn.

How the values were obtained:
[1] = Toxicity in HEL cells assessed as induction of cell morphology changes; assay type: cell-based; details: human
[2] = system: Human alphaherpesvirus 1; assay: Antiviral activity against thymidine kinase deficient and acyclovir-resistant HSV1 KOS infected in HEL cells assessed as inhibition of virus-induced cytopathic effect; assay type: functional, organism-based; details: Human alphaherpesvirus 1, KOS
[3] = system: Vesicular stomatitis virus; assay: Antiviral activity against Vesicular stomatitis virus infected in HEL cells assessed as inhibition of virus-induced cytopathic effect; assay type: functional, organism-based
[4] = system: Vaccinia virus; assay: Antiviral activity against Vaccinia virus infected in HEL cells assessed as inhibition of virus-induced cytopathic effect; assay type: functional, organism-based; details: Orthopoxvirus vaccinia
[5] = system: Human alphaherpesvirus 2; assay: Antiviral activity against HSV2 G infected in HEL cells assessed as inhibition of virus-induced cytopathic effect; assay type: functional, organism-based; details: Human alphaherpesvirus 2, strain G
[6] = system: Human alphaherpesvirus 1; assay: Antiviral activity against HSV1 KOS infected in HEL cells assessed as inhibition of virus-induced cytopathic effect; assay type: functional, organism-based; details: Human alphaherpesvirus 1, KOS
[7] = Toxicity in MDCK cells assessed as induction of cell morphology changes; assay type: cell-based, Canis lupus familiaris; details: dog
[8] = system: Influenza B virus; assay: Antiviral activity against Influenza B virus (B/Hong Kong/05/1972) […] infected in MDCK cells assessed as inhibition of virus-induced cytopathic effect; assay type: functional, cell-based; details: B/Hong Kong/05/1972, MDCK
[9] = system: H3N2 subtype; assay: Antiviral activity against Influenza A virus (A/Hong Kong/7/1987(H3N2)) […] infected in MDCK cells assessed as inhibition of virus-induced cytopathic effect; assay type: functional, organism-based
[10] = system: Influenza A virus; assay: Antiviral activity against Influenza A virus (A/Puerto Rico/8/1934(H1N1)) H1N1 infected in MDCK cells assessed as inhibition of virus-induced cytopathic effect; assay type: functional, organism-based
[11] = system: Enterococcus faecalis; assay: Antimicrobial activity against Enterococcus faecalis 15376 over-expressing vanA; assay type: functional
[12] = system: Enterococcus faecalis; assay: Antimicrobial activity against Enterococcus faecalis ATCC 51299 over-expressing vanB; assay type: functional
[13] = system: Staphylococcus epidermidis; assay: Antimicrobial activity against Staphylococcus epidermidis over-expressing MecA; assay type: functional
[14] = system: Enterococcus faecalis; assay: Antimicrobial activity against Enterococcus faecalis ATCC 29212; assay type: functional
[15] = system: Staphylococcus epidermidis; assay: Antimicrobial activity against Staphylococcus epidermidis ATCC 35984 biofilms; assay type: functional
[16] = system: Staphylococcus aureus; assay: Antimicrobial activity against methicillin-resistant Staphylococcus aureus ATCC 33591; assay type: functional
[17] = system: Bacillus subtilis; assay: Antimicrobial activity against Bacillus subtilis ATCC 6633; assay type: functional
[18] = system: Staphylococcus aureus; assay: Antimicrobial activity against methicillin-sensitive Staphylococcus aureus ATCC 29213; assay type: functional

| SMILES | MCC [1] [µM] | EC50 [2] [µM] | EC50 [3] [µM] | EC50 [4] [µM] | EC50 [5] [µM] | EC50 [6] [µM] | MCC [7] [µM] | EC50 [8] [µM] | EC50 [9] [µM] | EC50 [10] [µM] | MBC [11] [µg/mL] | MIC [11] [µg/mL] | MBC [12] [µg/mL] | MIC [12] [µg/mL] | MBC [13] [µg/mL] | MIC [13] [µg/mL] | MBC [14] [µg/mL] | MIC [14] [µg/mL] | MBC [15] [µg/mL] | MIC [15] [µg/mL] | other results |
| --- | --- | --- | --- | --- | --- | --- | --- | --- | --- | --- | --- | --- | --- | --- | --- | --- | --- | --- | --- | --- | --- |
| CC(=O)N[C@H]1[C@H](O[C@@H]2c3ccc(c(Cl)c3)Oc3cc4cc(c3O)Oc3ccc(cc3Cl)C[C@H]3NC(=O)[C@H](n5cc6ccccc6c5Sc5nc6ccccc6s5)c5ccc(O)c(c5)Oc5cc(O)cc(c5)[C@H](NC3=O)C(=O)N[C@H]4C(=O)N[C@H]3C(=O)N[C@@H]2C(=O)N[C@H](C(=O)O)c2cc(O)cc(O)c2-c2cc3ccc2O)O[C@H](CO)[C@@H](O)[C@@H]1O | ≥ 100 | 45 | > 100 | 47 | 45 | 45 | 4 | > 100 | > 100 | > 100 | 256 (≈ 154 µM) | 0.0313 (≈ 0.0188 µM) | 256 (≈ 154 µM) | 0.0625 (≈ 0.0375 µM) | 256 (≈ 154 µM) | 4 (≈ 2.4 µM) | 256 (≈ 154 µM) | 2 (≈ 1.2 µM) | 0.5 (≈ 0.3 µM) | 0.0075 (≈ 0.0045 µM) | MBC [16]: 0.5 µg/mL (≈ 0.3 µM); MIC [16]: 0.0075 µg/mL (≈ 0.0045 µM); MBC [17]: 2 µg/mL (≈ 1.2 µM); MIC [17]: 1 µg/mL (≈ 0.6 µM); MBC [18]: 0.5 µg/mL (≈ 0.3 µM); MIC [18]: 0.0075 µg/mL (≈ 0.0045 µM) |
| CC(=O)N[C@H]1[C@H](O[C@@H]2c3ccc(c(Cl)c3)Oc3cc4cc(c3O)Oc3ccc(cc3Cl)C[C@H]3NC(=O)[C@H](n5cc6cc7ccccc7cc6c5Sc5nc6ccccc6s5)c5ccc(O)c(c5)Oc5cc(O)cc(c5)[C@H](NC3=O)C(=O)N[C@H]4C(=O)N[C@H]3C(=O)N[C@@H]2C(=O)N[C@H](C(=O)O)c2cc(O)cc(O)c2-c2cc3ccc2O)O[C@H](CO)[C@@H](O)[C@@H]1O | > 100 | > 100 | > 100 | > 100 | > 100 | > 100 | 20 | > 100 | 1.6 | < 4.9 | 32 (≈ 18.6 µM) | 0.0313 (≈ 0.0182 µM) | 256 (≈ 149 µM) | 1 (≈ 0.582 µM) | 256 (≈ 149 µM) | 0.0313 (≈ 0.0182 µM) | 256 (≈ 149 µM) | 0.0313 (≈ 0.0182 µM) | 0.5 (≈ 0.291 µM) | 0.015 (≈ 0.00873 µM) | MBC [16]: 4 µg/mL (≈ 2.33 µM); MIC [16]: 0.015 µg/mL (≈ 0.00873 µM); MBC [17]: 4 µg/mL (≈ 2.33 µM); MIC [17]: 0.0313 µg/mL (≈ 0.0182 µM); MBC [18]: 0.5 µg/mL (≈ 0.291 µM); MIC [18]: 0.015 µg/mL (≈ 0.00873 µM) |
| CC(=O)N[C@H]1[C@H](O[C@@H]2c3ccc(c(Cl)c3)Oc3cc4cc(c3O)Oc3ccc(cc3Cl)C[C@H]3NC(=O)[C@H](n5cc6cc7ccccc7cc6c5Sc5ncccn5)c5ccc(O)c(c5)Oc5cc(O)cc(c5)[C@H](NC3=O)C(=O)N[C@H]4C(=O)N[C@H]3C(=O)N[C@@H]2C(=O)N[C@H](C(=O)O)c2cc(O)cc(O)c2-c2cc3ccc2O)O[C@H](CO)[C@@H](O)[C@@H]1O | ≥ 100 | 45 | > 100 | 10 | 27 | 40 | 13 | > 50 | 0.54 | 0.54 | 256 (≈ 154 µM) | 0.5 (≈ 0.301 µM) | 256 (≈ 154 µM) | 1 (≈ 0.602 µM) | 256 (≈ 154 µM) | 0.015 (≈ 0.00902 µM) | 256 (≈ 154 µM) | 0.015 (≈ 0.00902 µM) | 0.5 (≈ 0.301 µM) | 0.015 (≈ 0.00902 µM) | MBC [16]: 0.5 µg/mL (≈ 0.301 µM); MIC [16]: 0.015 µg/mL (≈ 0.00902 µM); MBC [17]: 2 µg/mL (≈ 1.2 µM); MIC [17]: 0.0313 µg/mL (≈ 0.0188 µM); MBC [18]: 0.5 µg/mL (≈ 0.301 µM); MIC [18]: 0.015 µg/mL (≈ 0.00902 µM) |
| CC(=O)N[C@H]1[C@H](O[C@@H]2c3ccc(c(Cl)c3)Oc3cc4cc(c3O)Oc3ccc(cc3Cl)C[C@H]3NC(=O)[C@H](n5cc6ccccc6c5Sc5ncccn5)c5ccc(O)c(c5)Oc5cc(O)cc(c5)[C@H](NC3=O)C(=O)N[C@H]4C(=O)N[C@H]3C(=O)N[C@@H]2C(=O)N[C@H](C(=O)O)c2cc(O)cc(O)c2-c2cc3ccc2O)O[C@H](CO)[C@@H](O)[C@@H]1O | > 100 | 50 | > 100 | ≥ 58 | 45 | 47 | 20 | > 100 | > 100 | > 100 | 256 (≈ 159 µM) | 0.0625 (≈ 0.0388 µM) | 256 (≈ 159 µM) | 1 (≈ 0.62 µM) | 64 (≈ 39.7 µM) | 4 (≈ 2.48 µM) | 256 (≈ 159 µM) | 0.0313 (≈ 0.0194 µM) | 1 (≈ 0.62 µM) | 0.0165 (≈ 0.0102 µM) | MBC [16]: 8 µg/mL (≈ 4.96 µM); MIC [16]: 0.0313 µg/mL (≈ 0.0194 µM); MBC [17]: 0.5 µg/mL (≈ 0.31 µM); MIC [17]: 0.0625 µg/mL (≈ 0.0388 µM); MBC [18]: 0.5 µg/mL (≈ 0.31 µM); MIC [18]: 0.0313 µg/mL (≈ 0.0194 µM) |
| CC(=O)N[C@H]1[C@H](O[C@@H]2c3ccc(c(Cl)c3)Oc3cc4cc(c3O)Oc3ccc(cc3Cl)C[C@H]3NC(=O)[C@H](n5cc6ccccc6c5Sc5ccccc5)c5ccc(O)c(c5)Oc5cc(O)cc(c5)[C@H](NC3=O)C(=O)N[C@H]4C(=O)N[C@H]3C(=O)N[C@@H]2C(=O)N[C@H](C(=O)O)c2cc(O)cc(O)c2-c2cc3ccc2O)O[C@H](CO)[C@@H](O)[C@@H]1O | ≥ 20 | ≥ 20 | > 20 | > 20 | 9 | 9 | 4 | > 100 | > 100 | > 100 | 32 (≈ 19.9 µM) | 2 (≈ 1.24 µM) | 256 (≈ 159 µM) | 2 (≈ 1.24 µM) | 32 (≈ 19.9 µM) | 2 (≈ 1.24 µM) | 256 (≈ 159 µM) | 0.0075 (≈ 0.00466 µM) | 0.5 (≈ 0.31 µM) | 0.0165 (≈ 0.0102 µM) | MBC [16]: 2 µg/mL (≈ 1.24 µM); MIC [16]: 0.0625 µg/mL (≈ 0.0388 µM); MBC [17]: 1 µg/mL (≈ 0.621 µM); MIC [17]: 1 µg/mL (≈ 0.621 µM); MBC [18]: 128 µg/mL (≈ 79.5 µM); MIC [18]: 0.125 µg/mL (≈ 0.0776 µM) |
